This note sets out measurements from ChEMBL document CHEMBL4033641, “Design, synthesis and anticancer potential of NSC-319745 hydroxamic acid derivatives as DNMT and HDAC inhibitors” (Eur J Med Chem, 2017).

Series [1] concerns the target DNA (cytosine-5)-methyltransferase 1 (Homo sapiens) (UniProt P26358). Nature of the series: Inhibition of DNMT1 (unknown origin) at 100 uM using poly(dI-dC).poly(dI-dC) as substrate preincubated for 15 mins followed by substrate/[3H]-SAM addition measured after 120 mins by liquid scintillation counting analysis.
Series [2] deals with T1, Protein deacetylase HDAC6 (Homo sapiens, UniProt Q9UBN7).
T1 sequence (Q9UBN7 whole entry): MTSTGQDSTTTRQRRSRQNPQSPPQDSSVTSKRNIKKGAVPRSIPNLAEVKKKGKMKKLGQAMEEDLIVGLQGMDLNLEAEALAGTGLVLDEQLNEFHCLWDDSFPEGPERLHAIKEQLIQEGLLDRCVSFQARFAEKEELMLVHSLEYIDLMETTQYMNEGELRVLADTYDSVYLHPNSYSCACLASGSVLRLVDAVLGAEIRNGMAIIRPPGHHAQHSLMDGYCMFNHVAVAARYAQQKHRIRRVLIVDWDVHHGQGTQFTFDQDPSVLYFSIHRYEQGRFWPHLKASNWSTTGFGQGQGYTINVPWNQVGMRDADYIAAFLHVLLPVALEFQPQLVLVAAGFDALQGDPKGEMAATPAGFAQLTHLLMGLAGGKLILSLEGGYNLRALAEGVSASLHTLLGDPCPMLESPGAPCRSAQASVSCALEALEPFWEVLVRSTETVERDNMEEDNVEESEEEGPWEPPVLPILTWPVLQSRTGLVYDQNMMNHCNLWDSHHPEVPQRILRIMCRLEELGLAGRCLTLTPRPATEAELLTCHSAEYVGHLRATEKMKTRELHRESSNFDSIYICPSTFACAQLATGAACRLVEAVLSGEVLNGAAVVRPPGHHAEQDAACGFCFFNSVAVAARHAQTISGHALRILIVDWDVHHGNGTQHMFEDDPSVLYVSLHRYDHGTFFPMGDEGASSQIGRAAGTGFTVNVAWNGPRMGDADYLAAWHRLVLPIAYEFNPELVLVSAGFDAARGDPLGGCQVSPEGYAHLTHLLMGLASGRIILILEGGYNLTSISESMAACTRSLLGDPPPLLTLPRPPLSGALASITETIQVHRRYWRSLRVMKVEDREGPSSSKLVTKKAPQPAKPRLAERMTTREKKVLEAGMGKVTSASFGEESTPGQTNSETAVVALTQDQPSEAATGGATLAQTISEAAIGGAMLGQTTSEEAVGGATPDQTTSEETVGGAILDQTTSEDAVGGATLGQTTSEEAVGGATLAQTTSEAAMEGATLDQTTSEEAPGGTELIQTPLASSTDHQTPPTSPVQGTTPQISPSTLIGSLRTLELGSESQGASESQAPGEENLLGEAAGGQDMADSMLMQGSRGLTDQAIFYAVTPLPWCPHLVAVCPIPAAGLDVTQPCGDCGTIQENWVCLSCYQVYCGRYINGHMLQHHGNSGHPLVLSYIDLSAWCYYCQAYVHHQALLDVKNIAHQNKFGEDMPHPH
The experiment in a line: Inhibition of HDAC6 (unknown origin) preincubated for 15 mins followed by substrate addition measured after 60 mins by fluorescence assay.

The target in series [3] is DNMT3A2/3L complex (Homo sapiens) (UniProt Q9Y6K1+Q9UJW3). Nature of the series: Inhibition of DNMT3A/3L (unknown origin) at 100 uM using biotinylated DNA oligonucleotides as substrate preincubated for 15 mins followed by substrate/[3H]-SAM addition measured after 4 hrs by liquid scintillation counting analysis. The series is classed as protein-complex assay.
Chain of DNMT3A2/3L complex (Homo sapiens) (Q9UJW3 whole entry, looked up): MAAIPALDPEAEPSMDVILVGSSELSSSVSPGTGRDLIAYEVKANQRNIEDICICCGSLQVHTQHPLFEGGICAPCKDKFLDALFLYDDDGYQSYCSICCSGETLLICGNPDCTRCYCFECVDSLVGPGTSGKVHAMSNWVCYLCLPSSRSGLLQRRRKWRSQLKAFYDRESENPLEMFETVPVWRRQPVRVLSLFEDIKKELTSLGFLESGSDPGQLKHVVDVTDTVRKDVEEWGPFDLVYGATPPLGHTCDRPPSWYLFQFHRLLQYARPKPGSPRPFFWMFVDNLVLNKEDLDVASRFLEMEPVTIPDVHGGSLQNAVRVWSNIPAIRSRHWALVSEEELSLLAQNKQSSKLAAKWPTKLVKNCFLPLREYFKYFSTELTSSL
Chain of DNMT3A2/3L complex (Homo sapiens) (Q9Y6K1 whole entry, looked up): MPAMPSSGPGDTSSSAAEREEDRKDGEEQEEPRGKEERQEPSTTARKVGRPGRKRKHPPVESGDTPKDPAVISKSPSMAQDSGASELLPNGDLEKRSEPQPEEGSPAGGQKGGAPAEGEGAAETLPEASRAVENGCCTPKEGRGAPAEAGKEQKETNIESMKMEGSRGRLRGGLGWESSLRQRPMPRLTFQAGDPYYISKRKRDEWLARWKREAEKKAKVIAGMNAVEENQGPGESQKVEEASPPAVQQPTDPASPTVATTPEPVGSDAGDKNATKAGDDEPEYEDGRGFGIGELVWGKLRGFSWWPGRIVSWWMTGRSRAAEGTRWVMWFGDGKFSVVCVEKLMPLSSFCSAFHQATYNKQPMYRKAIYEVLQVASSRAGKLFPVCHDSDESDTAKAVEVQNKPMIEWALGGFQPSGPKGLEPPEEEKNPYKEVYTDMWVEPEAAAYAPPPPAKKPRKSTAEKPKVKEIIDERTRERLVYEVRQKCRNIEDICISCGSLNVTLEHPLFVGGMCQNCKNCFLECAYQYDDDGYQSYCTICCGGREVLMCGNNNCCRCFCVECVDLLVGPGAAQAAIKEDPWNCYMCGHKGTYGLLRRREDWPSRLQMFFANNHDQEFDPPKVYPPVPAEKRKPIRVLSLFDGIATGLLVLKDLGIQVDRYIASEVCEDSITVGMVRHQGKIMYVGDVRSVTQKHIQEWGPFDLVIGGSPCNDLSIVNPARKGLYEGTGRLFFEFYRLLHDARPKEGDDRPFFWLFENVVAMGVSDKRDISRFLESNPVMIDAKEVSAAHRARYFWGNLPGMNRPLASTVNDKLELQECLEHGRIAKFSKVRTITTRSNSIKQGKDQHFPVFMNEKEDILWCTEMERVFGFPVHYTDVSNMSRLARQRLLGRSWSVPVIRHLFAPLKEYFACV
Series [4] has as its target DNMT3B-DNMT3L complex (Homo sapiens) (UniProt Q9UBC3+Q9UJW3). The experiment in a line: Inhibition of DNMT3B/3L (unknown origin) at 100 uM using biotinylated DNA oligonucleotides as substrate preincubated for 15 mins followed by substrate/[3H]-SAM addition measured after 4 hrs by liquid scintillation counting analysis. The series is classed as protein-complex assay.
In another series the target is Histone deacetylase 1 (Homo sapiens, UniProt Q13547). The experiment in a line: Inhibition of HDAC1 (unknown origin) preincubated for 15 mins followed by substrate addition measured after 60 mins by fluorescence assay.
Chain of Histone deacetylase 1 (Q13547 whole entry): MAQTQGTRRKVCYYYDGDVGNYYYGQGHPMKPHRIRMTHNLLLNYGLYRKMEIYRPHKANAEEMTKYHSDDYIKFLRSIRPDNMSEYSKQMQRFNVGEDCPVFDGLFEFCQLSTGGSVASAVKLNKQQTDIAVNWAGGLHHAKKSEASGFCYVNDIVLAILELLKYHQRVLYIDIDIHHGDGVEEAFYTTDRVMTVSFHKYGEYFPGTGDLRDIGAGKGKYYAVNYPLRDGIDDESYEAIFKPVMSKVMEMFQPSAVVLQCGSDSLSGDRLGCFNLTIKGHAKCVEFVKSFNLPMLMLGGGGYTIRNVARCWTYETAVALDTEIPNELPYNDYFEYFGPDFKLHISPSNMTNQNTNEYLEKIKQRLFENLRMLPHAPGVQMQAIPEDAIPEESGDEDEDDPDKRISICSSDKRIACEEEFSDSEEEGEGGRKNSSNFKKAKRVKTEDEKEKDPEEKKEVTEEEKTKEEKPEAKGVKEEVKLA
Another series deals with U-937. Nature of the series: Antiproliferative activity against human U937 cells after 72 hrs by MTT assay. The series is classed as functional, cell-based. Particulars: U-937, 72 h. (Formazan colour is commonly taken as a measure of viable cells.)
The test system of the next series is K562. Nature of the series: Antiproliferative activity against human K562 cells after 72 hrs by MTT assay. The series is classed as functional, cell-based. Particulars: K562, 72 h.
The test system of series [5] is Salmonella typhimurium. The experiment in a line: Genotoxicity in Salmonella typhimurium TA97 at 50 times IC50 by Ames test. The series is classed as toxicity. Particulars: salmonella enterica subsp. enterica serovar typhimurium. On the technique in general: The Ames test uses bacterial strains that need an amino acid and regain growth without it when mutated back.

In series [6] the test system is Salmonella typhimurium. The experiment in a line: Genotoxicity in Salmonella typhimurium TA1535 at 50 times IC50 by Ames test. The series is classed as toxicity. The conditions noted are these: salmonella enterica subsp. enterica serovar typhimurium.
Series [7] concerns Salmonella typhimurium. The experiment in a line: Genotoxicity in Salmonella typhimurium TA98 at 50 times IC50 by Ames test. The series is classed as toxicity. Particulars: salmonella enterica subsp. enterica serovar typhimurium.
The test system of series [8] is Salmonella typhimurium. The experiment in a line: Genotoxicity in Salmonella typhimurium TA102 at 50 times IC50 by Ames test. The series is classed as toxicity. The conditions noted are these: salmonella enterica subsp. enterica serovar typhimurium.

Chain of DNA (cytosine-5)-methyltransferase 1 (Homo sapiens) (P26358 whole entry): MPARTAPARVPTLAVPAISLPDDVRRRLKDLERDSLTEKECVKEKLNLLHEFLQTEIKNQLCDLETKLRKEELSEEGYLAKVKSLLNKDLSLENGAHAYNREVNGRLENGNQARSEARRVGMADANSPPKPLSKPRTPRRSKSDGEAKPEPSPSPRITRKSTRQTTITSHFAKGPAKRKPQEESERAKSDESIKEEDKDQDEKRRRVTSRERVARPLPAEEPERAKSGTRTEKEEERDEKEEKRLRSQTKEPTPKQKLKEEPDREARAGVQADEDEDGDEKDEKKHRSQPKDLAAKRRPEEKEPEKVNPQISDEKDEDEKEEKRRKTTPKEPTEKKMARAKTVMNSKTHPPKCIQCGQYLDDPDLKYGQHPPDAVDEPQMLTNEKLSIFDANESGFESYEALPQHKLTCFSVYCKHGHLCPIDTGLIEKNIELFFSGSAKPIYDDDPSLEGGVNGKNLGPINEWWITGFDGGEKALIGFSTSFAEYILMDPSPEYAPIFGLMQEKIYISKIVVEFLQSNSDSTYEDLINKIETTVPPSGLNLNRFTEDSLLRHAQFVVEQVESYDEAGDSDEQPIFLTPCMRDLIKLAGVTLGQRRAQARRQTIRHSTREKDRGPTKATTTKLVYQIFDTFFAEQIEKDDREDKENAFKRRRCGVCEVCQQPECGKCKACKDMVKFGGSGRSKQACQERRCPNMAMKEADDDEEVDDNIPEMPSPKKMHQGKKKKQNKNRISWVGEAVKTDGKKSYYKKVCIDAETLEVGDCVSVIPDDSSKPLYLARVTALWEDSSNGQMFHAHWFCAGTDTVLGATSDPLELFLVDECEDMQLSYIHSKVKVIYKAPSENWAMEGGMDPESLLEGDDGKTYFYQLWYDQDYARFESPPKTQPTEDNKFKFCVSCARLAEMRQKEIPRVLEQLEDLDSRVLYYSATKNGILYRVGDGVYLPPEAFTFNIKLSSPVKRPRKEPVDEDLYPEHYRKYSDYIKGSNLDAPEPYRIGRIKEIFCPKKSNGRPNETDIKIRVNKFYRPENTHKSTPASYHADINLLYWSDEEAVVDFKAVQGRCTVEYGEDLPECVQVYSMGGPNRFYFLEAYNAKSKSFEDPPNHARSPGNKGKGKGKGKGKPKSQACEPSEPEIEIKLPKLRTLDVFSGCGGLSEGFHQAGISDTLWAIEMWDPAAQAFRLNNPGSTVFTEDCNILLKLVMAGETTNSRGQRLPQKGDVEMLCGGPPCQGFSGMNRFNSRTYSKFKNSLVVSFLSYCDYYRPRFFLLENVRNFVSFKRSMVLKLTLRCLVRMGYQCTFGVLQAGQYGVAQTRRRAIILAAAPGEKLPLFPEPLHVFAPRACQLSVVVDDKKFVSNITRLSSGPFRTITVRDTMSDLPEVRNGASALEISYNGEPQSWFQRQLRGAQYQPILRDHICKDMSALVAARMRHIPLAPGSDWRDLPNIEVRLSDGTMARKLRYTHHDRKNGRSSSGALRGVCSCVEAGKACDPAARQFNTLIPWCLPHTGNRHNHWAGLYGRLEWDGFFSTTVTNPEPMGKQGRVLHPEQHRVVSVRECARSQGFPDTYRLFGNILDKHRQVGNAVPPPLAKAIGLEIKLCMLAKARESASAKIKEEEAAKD
Chain of DNMT3B-DNMT3L complex (Homo sapiens) (Q9UJW3 whole entry, looked up, other chains not shown): as the sequence (Q9UJW3 whole entry, looked up) above

In general, inhibition refers to the relative decrease from the control value, in per cent. As a reminder, the IC50 is the midpoint of a concentration-inhibition curve. Read a low IC50 as inhibition by little substance. Turning to `O=C(/C=C/c1ccc(CCNC(=O)c2c[nH]c3ncccc23)cc1)NO`, the inhibition in [1] is 28.1%; in series [3], 21%; in series [4], 7.23%. Further, the IC50 in series [2] was determined as 8.35 nM; against Histone deacetylase 1 it was 14.3 nM; with U-937, 17800 nM; with K562, 17.9 µM.
On to `O=C(/C=C/c1ccc(CCNC(=O)c2ccc3c(c2)OCO3)cc1)NO`, for which the Activity entry in the series on Salmonella typhimurium [5] is recorded as “Non-Toxic”; in the series with Salmonella typhimurium [6], “Toxic”; in the series on Salmonella typhimurium [7], “Non-Toxic”; in the series with Salmonella typhimurium [8], “Non-Toxic”. The inhibition in series [1] was 18.4%; in [3], -1.03%; in [4], 9.89%. Further, the 50% inhibitory concentration (IC50) amounted to 7.1 nM in series [2], 7.18 nM against Histone deacetylase 1, 520 nM in the series on U-937 and 1.12 µM in the series on K562.
For the compound `COc1ccc(Cl)cc1C(=O)NCCc1ccc(CCC(=O)NO)cc1`, the Activity result with Salmonella typhimurium [5] is recorded as “Non-Toxic”; in the series with Salmonella typhimurium [6], “Non-Toxic”; in the series on Salmonella typhimurium [7], “Non-Toxic”; with Salmonella typhimurium [8] it was “Toxic”. In addition, the inhibition is 23.8 to 24% in series [1], 4.64 to 5% in series [3] and 8.26% in series [4]. Moreover, the IC50 in [2] turned out to be 41.4 nM; at Histone deacetylase 1, 72.3 nM; in the series on U-937, 3950 nM; with K562, 6.23 µM.
As for `COc1cc(C(=O)NCCc2ccc(/C=C/C(=O)NO)cc2)ccc1O`, the inhibition in series [1] is 27.9%; in [3], 11.2%; in series [4], 15.8%. In addition, the IC50 in series [2] was 10.7 nM; against Histone deacetylase 1, 8.1 nM; with U-937, 10700 nM; with K562 it was 5.18 µM.
Take `Cc1cc(Nc2ccc(NC(=O)c3ccc(Nc4ccnc5ccccc45)cc3)cc2)nc(N)n1`: the IC50 in the series on U-937 amounted to 1560 nM; in the series with K562 it was 1.16 µM.
For the compound `O=C(/C=C/c1ccc(CCNC(=O)c2cncc(F)c2)cc1)NO`, the Activity entry with Salmonella typhimurium [5], in the series with Salmonella typhimurium [6], in the series with Salmonella typhimurium [7] and in the series on Salmonella typhimurium [8] was “Non-Toxic” throughout. The inhibition in [1] is 44 to 44.2%; in [3], 0.9%; in [4], 1.9%. The IC50 in series [2] stood at 35.9 nM; against Histone deacetylase 1 it was 25.7 nM; in the series on U-937, 4590 nM; in the series with K562, 7.06 µM.
Consider `O=C(/C=C/c1ccc(CCNC(=O)c2ccc3ncccc3c2)cc1)NO`, for which the Activity entry is “Non-Toxic” in the series with Salmonella typhimurium [5], “Non-Toxic” in the series on Salmonella typhimurium [6], “Toxic” in the series with Salmonella typhimurium [7] and “Non-Toxic” with Salmonella typhimurium [8]. Moreover, the inhibition in series [1] is 22.9%; in series [3], 19.1%; in series [4], 50 to 50.1%. The IC50 in series [2] came out at 5.28 nM; on Histone deacetylase 1 it was 4 nM; with U-937, 1260 nM; in the series on K562 it was 3.16 µM.
For the compound `COc1ccc(Cl)cc1C(=O)NCCc1cccc(/C=C/C(=O)NO)c1`, the Activity result in the series with Salmonella typhimurium [5], in the series with Salmonella typhimurium [6], with Salmonella typhimurium [7] and in the series with Salmonella typhimurium [8] was “Non-Toxic” in each case. Moreover, the inhibition in series [1] is 36 to 36.4%; in series [3] it was 1.97%; in [4], 3.09%. For the same compound, the IC50 in series [2] came out at 39.9 nM; against Histone deacetylase 1 it was 34.6 nM; with U-937 it was 1070 nM; in the series on K562, 3.65 µM.
On to `O=C(/C=C/c1ccc(CCNC(=O)c2ccc3c(c2)OCCO3)cc1)NO`, for which the Activity result in the series with Salmonella typhimurium [5], with Salmonella typhimurium [6], with Salmonella typhimurium [7] and with Salmonella typhimurium [8] was “Non-Toxic” throughout. Also, the inhibition is 47.9 to 48% in [1], -0.26% in series [3] and 28 to 28.1% in [4]. Also, the IC50 in series [2] worked out at 11.9 nM; against Histone deacetylase 1, 11.3 nM; in the series with U-937, 2970 nM; with K562, 1.78 µM.
